Results taken from patent US8629273B2, “Diazinylpyrazolyl compounds” (Bayer Intellectual Property GmbH, priority 2009, dated 2014).

Key:
[1] = test system: larvae of the mustard beetle (Phaedon cochleariae); assay: Phaedon test (PHAECO spray treatment); assay type: in vivo; details: after 7 days
Procedure: (§1) Solvents: 78.0 parts by weight of acetone • • 1.5 parts by weight of dimethyl formamide Emulsifier: 0.5 part by weight of alkylaryl polyglycol ether To produce a suitable preparation of active compound, 1 part by weight of active compound is mixed with the stated amounts of solvent and emulsifier, and the concentrate is diluted with emulsifier-containing water to the desired concentration. Discs of Chinese cabbage leaves (Brassica pekinensis) are sprayed with an active compound preparation of the desired concentration and, after drying, populated with larvae of the mustard beetle (Phaedon cochleariae). After 7 days, the activity in % is determined. 100% means that all beetle larvae have been killed; 0% means that none of the beetle larvae have been killed. The test was carried out and evaluated as described in Example B.4.

[2] = test system: greenhouse red spider mite (Tetranychus urticae); assay: Tetranychus test, OP resistant (TETRUR spray treatment); assay type: in vivo; details: after 6 days
Procedure: Solvents: 78.0 parts by weight of acetone • • 1.5 parts by weight of dimethyl formamide Emulsifier: 0.5 part by weight of alkylaryl polyglycol ether To produce a suitable preparation of active compound, 1 part by weight of active compound is mixed with the stated amounts of solvent and emulsifier, and the concentrate is diluted with emulsifier-containing water to the desired concentration. Discs of bean leaves (Phaseolus vulgaris) which are infested by all stages of the greenhouse red spider mite (Tetranychus urticae) are sprayed with an active compound preparation of the desired concentration. After 6 days, the activity in % is determined. 100% means that all spider mites have been killed; 0% means that none of the spider mites has been killed. The test was carried out and evaluated as described in Example B.7.

[3] = test system: caterpillars of the army worm (Spodoptera frugiperda); assay: Spodoptera frugiperda test (SPODFR spray treatment); assay type: in vivo; details: after 7 days
Procedure: as §1, with “maize” for “Chinese cabbage”, “(Zea mays)” for “(Brassica pekinensis)”, “caterpillars” for “larvae”, “army worm (Spodoptera frugiperda).” for “mustard beetle (Phaedon cochleariae).”, “caterpillars” for “beetle larvae”, “B.5.” for “B.4.”

[4] = test system: Lucilia cuprina larvae; assay: Lucilia cuprina test (LUCICU); assay type: in vivo; details: 100 ppm, treated horse meat, after 2 days
Procedure: Solvent: Dimethyl Sulphoxide To produce a suitable preparation of active compound, 10 mg of active compound are mixed with 0.5 ml of dimethyl sulphoxide, and the concentrate is diluted with water to the desired concentration. Containers containing horse meat treated with the active compound preparation of the desired concentration are populated with Lucilia cuprina larvae. After 2 days, the kill in % is determined. 100% means that all larvae have been killed; 0% means that none of the larvae have been killed.

[5] = test system: adult Musca domestica; assay: Musca domestica test (MUSCDO); assay type: in vivo; details: treated sponge
Procedure: Solvent: Dimethyl sulphoxide To prepare a suitable preparation of active compound, 10 mg of active component are mixed with 0.5 ml of dimethyl sulphoxide, and the concentrate is diluted with water to the desired concentration. Vessels containing a sponge which had been treated with the active compound preparation of the desired concentration are populated with adult Musca domestica. After the desired period of time, the kill in % is determined. 100% means that all flies have been killed; 0% means that none of the flies have been killed.

[6] = test system: Boophilus microplus; assay: Boophilus microplus test (BOOPMI injection); assay type: in vivo; details: 20 μg/animal, injected into the abdomen, after 7 days
Procedure: Solvent: Dimethyl Sulphoxide To produce a suitable preparation of active compound, 10 mg of active compound are mixed with 0.5 ml of solvent, and the concentrate is diluted with water to the desired concentration. The active compound solution is injected into the abdomen (Boophilus microplus) and the animals are transferred into dishes and stored in a climatized room. The activity is monitored for deposition of fertile eggs. After 7 days, the activity in % is determined. 100% means that none of the ticks has laid fertile eggs.

[7] = logP by HPLC on reversed-phase columns (C 18), EU Guideline 79/831 Annex V.A8; assay type: physicochemical; details: ** LC-MS in the neutral range, pH 7.8, 0.001 molar aqueous ammonium bicarbonate and acetonitrile
[8] = test system: Ctenocephalides felis; assay: Ctenocephalides felis oral (CTECFE); assay type: in vivo; details: 100 ppm in citrated cattle blood, after 2 days
Procedure: Solvent: 1 part by weight of dimethyl sulphoxide To produce a suitable preparation of active compound, 10 mg of active compound are mixed with 0.5 ml of dimethyl sulphoxide. One part of the concentrate is diluted with citrated cattle blood, and the desired concentration is prepared. 20 unfed adult fleas (Ctenocephalides felis) are placed into a chamber whose top and bottom ends are closed with gauze. A metal cylinder whose bottom end is closed with parafilm is placed onto the chamber. The cylinder contains the blood/active compound preparation, which can be taken up by the fleas through the parafilm membrane. After 2 days, the kill in % is determined. 100% means that all fleas have been killed; 0% means that none of the fleas have been killed.

[9] = test system: Boophilus microplus strain Parkhurst (SP-resistant); assay: Boophilus microplus test (DIP); assay type: in vivo; details: 100 ppm
Procedure: Test animals: adult fed females of the Boophilus microplus strain Parkhurst (SP-resistant)
Solvent: Dimethyl sulphoxide
10 mg of active compound are dissolved in 0.5 ml of dimethyl sulphoxide. To produce a suitable formulation, the active compound solution is diluted with water to the particular desired concentration. This active compound preparation is pipetted into tubes. 8-10 ticks are transferred into a further tube provided with holes. The tube is dipped into the active compound preparation, with all ticks being wetted completely. After the liquid has run off, the ticks are transferred to filter discs in plastic dishes and kept in a climatized room. After the desired period of time, the activity is checked for deposition of fertile eggs. Eggs whose fertility is not visible from the outside are kept in glass tubes in a climatized cupboard under the larvae have hatched. An activity of 100% means that no tick has laid fertile eggs.

For COc1ccc(CNc2c(-c3cc(Cl)cc(C(F)(F)F)c3)c(C(F)(F)F)nn2-c2ncccn2)cc1 [compound (XXII), reference compound], the “activity (beetle larvae killed)” value ([1]; 100 g/ha) was “no activity”, the “activity (spider mites killed)” value ([2]; 100 g/ha) was “no activity” and the “activity (caterpillars killed)” value ([3]; 100 g/ha) was “no activity”.

For FC(F)(F)c1cc(Cl)cc(-c2c(C(F)(F)C(F)(F)F)nn(-c3ncccn3)c2N=Cc2ccc(Cl)cc2)c1 [Example 1-40], the kill [4] was 100%, the “activity (beetle larvae killed)” value ([1]; 100 g/ha) was 100% and the “activity (spider mites killed)” value ([2]; 100 g/ha) was 100%. For the same compound, the kill ([5]; 100 ppm) was 100%, the “activity (no deposition of fertile eggs)” value [6] was 100% and the “activity (caterpillars killed)” value ([3]; 100 g/ha) was 100%. The logP [7] was 5.93** and the kill [8] was 100%.

For FC(F)(F)c1nn(-c2ncccn2)c(N=Cc2ccccc2)c1-c1cc(Cl)c2c(c1)OCO2 [Example 1-18], the kill [4] was 100%, the “activity (beetle larvae killed)” value ([1]; 100 g/ha) was 100% and the “activity (spider mites killed)” value ([2]; 20 g/ha) was “at least 90%”. For the same compound, the “activity (spider mites killed)” value ([2]; 100 g/ha) was 90%, the kill ([5]; 20 ppm) was 80% and the “activity (no deposition of fertile eggs)” value [6] was 100%. For the same compound, the “activity (no deposition of fertile eggs)” value [9] was 100%, the “activity (caterpillars killed)” value ([3]; 20 g/ha) was 67% and the “activity (caterpillars killed)” value ([3]; 100 g/ha) was 100%. The logP [7] was 3.97** and the kill [8] was 100%.

In the case of FC(F)C(F)(F)c1nn(-c2ncccn2)c(N=Cc2ccc(Cl)cc2)c1-c1cc(Cl)c2c(c1)OCO2 [Example 1-22], the kill [4] is reported as 100%, the “activity (beetle larvae killed)” value ([1]; 100 g/ha) is reported as 100% and the “activity (spider mites killed)” value ([2]; 100 g/ha) is reported as 90%. The “activity (no deposition of fertile eggs)” value [6] was 100%, the “activity (no deposition of fertile eggs)” value [9] was 100% and the “activity (caterpillars killed)” value ([3]; 100 g/ha) was 100%. For the same compound, the logP [7] was 4.34** and the kill [8] was 100%.

With CC(C)OC=Nc1c(-c2cc(Cl)c3c(c2)OCO3)c(C(F)(F)C(F)F)nn1-c1ncccn1 [Example 1-38] the kill [4] was 100%, the “activity (beetle larvae killed)” value ([1]; 100 g/ha) was 100% and the “activity (spider mites killed)” value ([2]; 100 g/ha) was 100%. The kill ([5]; 20 ppm) was 100%, the “activity (no deposition of fertile eggs)” value [6] was 100% and the “activity (no deposition of fertile eggs)” value [9] was 100%. The “activity (caterpillars killed)” value ([3]; 100 g/ha) was 100%, the logP [7] was 3.66** and the kill [8] was 100%.

For COc1ccc(C=Nc2c(-c3cc(Cl)cc(C(F)(F)F)c3)c(C(F)(F)C(F)(F)F)nn2-c2ncccn2)cc1 [Example 1-41], the kill [4] was 100%, the “activity (beetle larvae killed)” value ([1]; 100 g/ha) was 100% and the “activity (spider mites killed)” value ([2]; 100 g/ha) was 100%. The kill ([5]; 100 ppm) was 100%, the “activity (no deposition of fertile eggs)” value [6] was 100% and the “activity (caterpillars killed)” value ([3]; 100 g/ha) was 100%. For the same compound, the logP [7] was 5.4** and the kill [8] was 100%.

For COc1cc(C=Nc2c(-c3cc(Cl)cc(C(F)(F)F)c3)c(C(F)(F)F)nn2-c2ncccn2)ccc1O [Example 1-10], the “activity (beetle larvae killed)” value ([1]; 100 g/ha) was 100%, the “activity (spider mites killed)” value ([2]; 100 g/ha) was 100% and the “activity (caterpillars killed)” value ([3]; 100 g/ha) was 100%. The logP [7] was 4.05**.

With COc1nccnc1-n1nc(C(F)(F)F)c(-c2cc(Cl)c3c(c2)OCO3)c1N=COC(C)C [Example 2-19] the kill [4] was 100%, the “activity (beetle larvae killed)” value ([1]; 100 g/ha) was 100% and the “activity (spider mites killed)” value ([2]; 100 g/ha) was 100%. The kill ([5]; 20 ppm) was 100%, the “activity (no deposition of fertile eggs)” value [6] was 100% and the “activity (no deposition of fertile eggs)” value [9] was 80%. For the same compound, the “activity (caterpillars killed)” value ([3]; 100 g/ha) was 100%, the logP [7] was 4.26** and the kill [8] was 90%.

In the case of FC(F)(F)c1cc(Cl)cc(-c2c(C(F)(F)F)nn(-c3ncccn3)c2N=Cc2ccccc2)c1 [Example 1-12], the kill [4] is reported as 100%, the “activity (beetle larvae killed)” value ([1]; 4 g/ha) is reported as 100% and the “activity (beetle larvae killed)” value ([1]; 100 g/ha) is reported as 100%. The “activity (spider mites killed)” value ([2]; 100 g/ha) was 100%, the kill ([5]; 20 ppm) was 100% and the “activity (no deposition of fertile eggs)” value [6] was 100%. For the same compound, the “activity (caterpillars killed)” value ([3]; 20 g/ha) was 100%, the “activity (caterpillars killed)” value ([3]; 100 g/ha) was 100% and the logP [7] was 4.92**. The kill [8] was 100%.

In the case of FC(F)(F)c1nn(-c2ncccn2)c(NCc2ccccc2)c1-c1cc(Cl)c2c(c1)OCO2 [compound (XXI), reference compound], the “activity (spider mites killed)” value ([2]; 20 g/ha) is reported as 0% and the “activity (caterpillars killed)” value ([3]; 20 g/ha) is reported as 0%.

In the case of COc1ccc(C=Nc2c(-c3cc(Cl)cc(C(F)(F)F)c3)c(C(F)(F)F)nn2-c2ncccn2)cc1 [Example 1-17], the kill [4] is reported as 100%, the “activity (beetle larvae killed)” value ([1]; 100 g/ha) is reported as 100% and the “activity (spider mites killed)” value ([2]; 100 g/ha) is reported as 100%. The kill ([5]; 20 ppm) was 100%, the “activity (no deposition of fertile eggs)” value [6] was 100% and the “activity (caterpillars killed)” value ([3]; 100 g/ha) was 100%. The logP [7] was 4.98** and the kill [8] was 100%.

In the case of CCOC=Nc1c(-c2cc(Cl)c3c(c2)OCO3)c(C(F)(F)C(F)F)nn1-c1ncccn1 [Example 1-35], the kill [4] is reported as 100%, the “activity (beetle larvae killed)” value ([1]; 100 g/ha) is reported as 100% and the “activity (spider mites killed)” value ([2]; 100 g/ha) is reported as 90%. For the same compound, the kill ([5]; 20 ppm) was 100%, the “activity (no deposition of fertile eggs)” value [6] was 100% and the “activity (no deposition of fertile eggs)” value [9] was 100%. The “activity (caterpillars killed)” value ([3]; 100 g/ha) was 100%, the logP [7] was 3.42** and the kill [8] was 100%.

For COc1nccnc1-n1nc(C(F)(F)C(F)F)c(-c2cc(Cl)cc(C(F)(F)F)c2)c1N=COC(C)C [Example 2-20], the kill [4] was 100%, the “activity (spider mites killed)” value ([2]; 100 g/ha) was 100% and the kill ([5]; 100 ppm) was 80%. For the same compound, the “activity (no deposition of fertile eggs)” value [6] was 100% and the logP [7] was 5.1**.

For CC(C)OC=Nc1c(-c2cc(Cl)cc(C(F)(F)F)c2)c(C(F)(F)C(F)(F)F)nn1-c1ncccn1 [Example 1-44], the “activity (beetle larvae killed)” value ([1]; 100 g/ha) was 100%, the “activity (spider mites killed)” value ([2]; 100 g/ha) was 100% and the “activity (caterpillars killed)” value ([3]; 100 g/ha) was 100%. For the same compound, the logP [7] was 5.31**.

For COc1ccc(C=Nc2c(-c3cc(Cl)cc(C(F)(F)F)c3)c(C(F)(F)C(F)F)nn2-c2ncccn2)cc1 [Example 1-21], the kill [4] was 100%, the “activity (beetle larvae killed)” value ([1]; 100 g/ha) was 100% and the “activity (spider mites killed)” value ([2]; 100 g/ha) was 90%. For the same compound, the kill ([5]; 100 ppm) was 100%, the “activity (no deposition of fertile eggs)” value [6] was 100% and the “activity (caterpillars killed)” value ([3]; 100 g/ha) was 100%. The logP [7] was 3.69** and the kill [8] was 100%.
